System: B10.BR recipients (acute GVHD)
Assay: Acute GVHD after allogeneic BMT: lethally irradiated B10.BR recipients given B6 BM and splenocytes
Assay type: in vivo, mice
Conditions: 15×10^6 splenocytes, ATRA 200 μg/mouse IP daily day 0 to 28
Description: FIG. 3. Heightened RA levels and RAR-α signaling exacerbates GVHD. Survival and weight curves of lethally irradiated B10.BR recipients (n=8/group) injected with 10^7 BM and 15×10^6 splenocytes from B6 mice. Subgroups were treated with vehicle (filled circles) or all trans retinoic acid (ATRA) (open circles) p=0.013.
FIG. 4. Heightened RA levels and RAR-α signaling exacerbates GVHD. Survival and weight curves of lethally irradiated B10.BR recipients (n=8/group) injected with 10^7 BM and 5×10^6 splenocytes from B6 mice. Subgroups were treated with vehicle (filled circles) or ATRA (open circles) p=0.037.
To determine whether heightened vitamin A signaling would augment acute GVHD, B10.BR recipients given BM with or without 15×10^6 splenocytes from B6 mice were given ATRA (200 μg/mouse IP) daily from day 0 to 28. […] These findings indicate heightened vitamin A levels and RAR signaling can enhance GVHD lethality.

Compound: CC1=C(/C=C/C(C)=C/C=C/C(C)=C/C(=O)O)C(C)(C)CCC1 [ATRA, all trans retinoic acid]
- GVHD lethality (p=0.013 vs vehicle): significant increase
- median survival time (MST) (vehicle 21.5 days): 9 days
- weight loss (vs vehicle): accelerated weight loss
